Measurements reported in US11565005B2, “Dota-hapten compositions for anti-dota/anti-tumor antigen bispecific antibody pretargeted radioimmunotherapy” (MEMORIAL SLOAN KETTERING CANCER CENTER, priority 2017, dated 2023).

Columns and labels:
[1] = test system: HER2-expressing BT-474 xenografts; assay: Ex vivo biodistribution of BsAb/hapten complex or hapten alone in BT-474 tumor-bearing mice; set-up: species or system athymic nude mice; details: 4 h after injection
Experimental: The ^225Ac-Proteus-DOTA haptens were injected intravenously via the lateral tail vein and euthanized 4 hours later for organ collection and radioactivity assessment. Asterisk (*) indicates levels below the limit of detection. Two groups of nude mice with subcutaneous BT474 tumors (3 mice each) were treated with either: [^225Ac Proteus-DOTA] only (0.51 nmol/mouse; ˜30 nCi of ^225Ac/mouse) or PD10-purified [anti-HER2-C825/[^225Ac Proteus-DOTA] complex (estimate 1.79 nmol of ^225Ac Proteus-DOTA/mouse, 1.0 nmol of antibody/mouse; 100 nCi ^225Ac/mouse), and sacrificed 4 h post-injection for ex vivo biodistribution assay. The tissue samples were read in the gamma counter the following day at equilibrium.
Biodistribution Experiments.
To determine whether isolated BsAb/[^225Ac]Proteus-DOTA complexes could target tumors in vivo, a biodistribution assay was conducted after SEC purification with two groups of athymic nude mice (n=3) bearing subcutaneous HER2-expressing BT-474 xenografts. […]

[2] = Biodistribution of [^225Ac]Proteus-DOTA alone in tumor-free nude mice; assay type: in vivo; details: hapten alone, 1 h p.i.
Excerpt: Carcass radioactivity was not collected during this study.

anti-HER2-C825 = assay: In vitro mixing with DOTA-PRIT BsAb followed by size-exclusion chromatography; assay type: binding
Experimental: In vitro Mixing of [^225Ac]Proteus-DOTA with a DOTA-PRIT BsAb, followed by In vivo Targeting Studies. […] After one week of storage of [^225Ac]Proteus-DOTA at room temperature, an in vitro mixing experiment consisting of mixing 145 μL of 6.91 mg/mL of anti-HER2-C825 (4.8 nmol of BsAb or 9.6 nmol of C825) and 90 μL of [^225Ac]Proteus-DOTA (488 nCi/8.64 nmol) for 1 h at room temperature (final volume 235 μL). As a control, 1 mg of trastuzumab (6.67 nmol) with also mixed in vitro with 90 μL of [^225Ac]Proteus-DOTA (468 nCi/8.64 nmol) in the same manner as the anti-HER2-C825. These two solutions were run separately on PD-10 size-exclusion columns pre-equilibrated with saline+1% human serum albumin, and were compared with the column elution of 90 μL (488 nCi/8.64 nmol) of [^225Ac]Proteus-DOTA only. Elution fractions were counted on the gamma-counter using an open window setting.
This was done by mixing the BsAb (˜210 kD) in slight molar excess to [^225Ac]Proteus-DOTA (9.6 nmol of C825/8.6 nmol of [^225Ac]Proteus-DOTA), followed by incubation at room temperature for 1 hour.

[3] = n = 3, listed as [^225Ac] Proteus-DOTA

In the case of `O=C([O-])CN1CCN(CC(=O)[O-])CCN(CC(=O)NCCOCCOCCOCCOCCNC(=S)Nc2ccc(CC3CN(CC(=O)[O-])CCN(CC(=O)[O-])CCN(CC(=O)[O-])CCN3CC(=O)[O-])cc2)CCN(CC(=O)[O-])CC1.[225Ac+3].[Lu+3]` (stereo not shown) [[^225Ac]Proteus-DOTA], the “uptake in all assayed tissues” value [1] is reported as at most 2 % ID/g, the tumor accumulation ([1]; BT-474 xenograft, i.v., n=3) is reported as 0.50±0.34 % ID/g and the Blood uptake ([2]; n = 3) is reported as 0.31±0.54 % ID/g. For the same molecule, the Bone uptake ([2]; n = 3) was 0.45 ± 0.79 % ID/g, the Kidneys uptake ([2]; n = 3) was 0.63±0.41 % ID/g and the “Large Intestine uptake” value ([2]; n = 3) was 0.02 ± 0.02 % ID/g. The Liver uptake ([2]; n = 3) was 0.04±0.06 % ID/g, the Muscle uptake ([2]; n = 3) was 0.98 ± 0.91 % ID/g and the “Small Intestine uptake” value ([2]; n = 3) was 0.16 ± 0.26 % ID/g. It also gave a Spleen uptake ([2]; n = 3) of 0.04 ± 0.06 % ID/g, a Stomach uptake ([2]; n = 3) of 0.24 ± 0.38 % ID/g and a Blood uptake [2, 3] of 0.31 ± 0.54 % ID/g. The Kidneys uptake [2, 3] was 0.63 ± 0.41 % ID/g, the Liver uptake [2, 3] was 0.01 ± 0.02 % ID/g and the “remaining activity recovered in elution fractions between 4.6-7.1 mL” value (anti-HER2-C825; PD-10 size-exclusion column) was 90%. The “recovered ^225Ac-activity eluting within the first 4.1 mL” value (anti-HER2-C825; PD-10 size-exclusion column after 1 h mixing at room temperature) was 9.3%.
